The values that follow come from PubChem BioAssay AID1259407 (Chemical Carcinogenesis Research Information System (CCRIS), 2018).

Molecules are shown by their SMILES. Calls of active or inactive are those of the source. The rule behind the calls is not given here.

For this series, the system named is CCRIS mutagenicity, Ames/micronucleus/aberration tests. The series is described as follows: CCRIS mutagenicity studies.
Where [1] appears, read: Test System: AMES SALMONELLA TYPHIMURIUM, Strain/Indicator: TA98, Metabolic Activation: NONE, Method: STANDARD PLATE.
Setting [2] is: Test System: AMES SALMONELLA TYPHIMURIUM, Strain/Indicator: TA100, Metabolic Activation: NONE, Method: STANDARD PLATE.
The mark [3] stands for this setting: Test System: AMES SALMONELLA TYPHIMURIUM, Strain/Indicator: TA100, Metabolic Activation: NONE, Method: PREINCUBATION
Setting [4] is: Test System: AMES SALMONELLA TYPHIMURIUM, Strain/Indicator: TA98, Metabolic Activation: NONE, Method: PREINCUBATION

`C[Si]1(C)O[Si](C)(C)O[Si](C)(C)O1`: the mutagenic call under setting [1] was “inactive; negative”; the mutagenic call (Test System: AMES SALMONELLA TYPHIMURIUM, Strain/Indicator: TA98, Metabolic Activation: RAT LIVER S-9, AROCLOR 1254, Method: STANDARD PLATE) was “inactive; negative”; the mutagenic call under setting [2] is “inactive; negative”; the mutagenic call (Test System: AMES SALMONELLA TYPHIMURIUM, Strain/Indicator: TA100, Metabolic Activation: RAT LIVER S-9, AROCLOR 1254, Method: STANDARD PLATE) is “inactive; negative”; the mutagenic call (Test System: AMES SALMONELLA TYPHIMURIUM, Strain/Indicator: TA1535, Metabolic Activation: NONE, Method: STANDARD PLATE) was “inactive; negative”; the mutagenic call (Test System: AMES SALMONELLA TYPHIMURIUM, Strain/Indicator: TA1535, Metabolic Activation: RAT LIVER S-9, AROCLOR 1254, Method: STANDARD PLATE) was “inactive; negative”. Further, the mutagenic call was “inactive; negative” (Test System: AMES SALMONELLA TYPHIMURIUM, Strain/Indicator: TA1537, Metabolic Activation: NONE, Method: STANDARD PLATE); “inactive; negative” (Test System: AMES SALMONELLA TYPHIMURIUM, Strain/Indicator: TA1537, Metabolic Activation: RAT LIVER S-9, AROCLOR 1254, Method: STANDARD PLATE); “inactive; negative” (Test System: AMES SALMONELLA TYPHIMURIUM, Strain/Indicator: TA1538, Metabolic Activation: NONE, Method: STANDARD PLATE); “inactive; negative” (Test System: AMES SALMONELLA TYPHIMURIUM, Strain/Indicator: TA1538, Metabolic Activation: RAT LIVER S-9, AROCLOR 1254, Method: STANDARD PLATE); “inactive; negative” (Test System: E. COLI, Strain/Indicator: P3078 POLA, Metabolic Activation: NONE, Method: SPOT TEST); “inactive; negative” (Test System: E. COLI, Strain/Indicator: P3078 POLA, Metabolic Activation: RAT LIVER S-9, AROCLOR 1254, Method: SPOT TEST). The mutagenic call (Test System: E. COLI, Strain/Indicator: W3110, Metabolic Activation: NONE, Method: SPOT TEST) was “inactive; negative”; the mutagenic call (Test System: E. COLI, Strain/Indicator: W3110, Metabolic Activation: RAT LIVER S-9, AROCLOR 1254, Method: SPOT TEST) was “inactive; negative”; the mutagenic call (Test System: MOUSE LYMPHOMA, Strain/Indicator: L5178Y (TK+/TK-), Metabolic Activation: NONE, Method: SUSPENSION/PLATE) is “inactive; negative”; the mutagenic call (Test System: MOUSE LYMPHOMA, Strain/Indicator: L5178Y (TK+/TK-), Metabolic Activation: RAT, LIVER, S-9, Method: SUSPENSION/PLATE) is “inactive; negative”.

As for `O=C(/C=C/c1ccccc1)c1ccccc1`, the mutagenic call was “inactive; negative” under setting [1]; “inactive; negative” (Test System: AMES SALMONELLA TYPHIMURIUM, Strain/Indicator: TA98, Metabolic Activation: RAT, LIVER, S-9, AROCLOR 1254, Method: STANDARD PLATE); “inactive; negative” under setting [3]; “inactive; negative” under setting [2]; “inactive; negative” (Test System: AMES SALMONELLA TYPHIMURIUM, Strain/Indicator: TA100, Metabolic Activation: RAT, LIVER, S-9, AROCLOR 1254, Method: PREINCUBATION); “inactive; negative” (Test System: AMES SALMONELLA TYPHIMURIUM, Strain/Indicator: TA100, Metabolic Activation: RAT, LIVER, S-9, AROCLOR 1254, Method: STANDARD PLATE).

Turning to `Cc1ccccc1OP(=O)(Oc1ccccc1)Oc1ccccc1`, the mutagenic call was “inactive; negative” (Test System: AMES SALMONELLA TYPHIMURIUM, Strain/Indicator: TA98, Metabolic Activation: HAMSTER, LIVER, S-9, AROCLOR 1254 (10%), Method: PREINCUBATION); “inactive; negative” under setting [4]; “inactive; negative” (Test System: AMES SALMONELLA TYPHIMURIUM, Strain/Indicator: TA98, Metabolic Activation: RAT, LIVER, S-9, AROCLOR 1254 (10%), Method: PREINCUBATION); “inactive; negative” (Test System: AMES SALMONELLA TYPHIMURIUM, Strain/Indicator: TA100, Metabolic Activation: HAMSTER, LIVER, S-9, AROCLOR 1254 (10%), Method: PREINCUBATION); “inactive; negative” under setting [3]; “inactive; negative” (Test System: AMES SALMONELLA TYPHIMURIUM, Strain/Indicator: TA100, Metabolic Activation: RAT, LIVER, S-9, AROCLOR 1254 (10%), Method: PREINCUBATION). The mutagenic call reads like this: (Test System: AMES SALMONELLA TYPHIMURIUM, Strain/Indicator: TA1535, Metabolic Activation: HAMSTER, LIVER, S-9, AROCLOR 1254 (10%), Method: PREINCUBATION) “inactive; negative”; (Test System: AMES SALMONELLA TYPHIMURIUM, Strain/Indicator: TA1535, Metabolic Activation: NONE, Method: PREINCUBATION) “inactive; negative”; (Test System: AMES SALMONELLA TYPHIMURIUM, Strain/Indicator: TA1535, Metabolic Activation: RAT, LIVER, S-9, AROCLOR 1254 (10%), Method: PREINCUBATION) “inactive; negative”; (Test System: AMES SALMONELLA TYPHIMURIUM, Strain/Indicator: TA1537, Metabolic Activation: HAMSTER, LIVER, S-9, AROCLOR 1254 (10%), Method: PREINCUBATION) “inactive; negative”; (Test System: AMES SALMONELLA TYPHIMURIUM, Strain/Indicator: TA1537, Metabolic Activation: NONE, Method: PREINCUBATION) “inactive; negative”; (Test System: AMES SALMONELLA TYPHIMURIUM, Strain/Indicator: TA1537, Metabolic Activation: RAT, LIVER, S-9, AROCLOR 1254 (10%), Method: PREINCUBATION) “inactive; negative”.

As for `BrCc1c2ccccc2cc2ccccc12`, the mutagenic call is “active; positive” under setting [1] and “active; positive” under setting [2].

On to `CS(C)=O.[Cl-].[Cl-].[Pt+2].c1ccncc1`, for which the mutagenic call reads like this: (Test System: AMES SALMONELLA TYPHIMURIUM, Strain/Indicator: TA92, Metabolic Activation: NONE, Method: STANDARD PLATE) “inactive; negative”; under setting [1], “inactive; negative”; under setting [2], “inactive; negative”; (Test System: AMES SALMONELLA TYPHIMURIUM, Strain/Indicator: TA2410, Metabolic Activation: NONE, Method: STANDARD PLATE) “inactive; negative”.

Turning to `CC(=O)Nc1ccc(Oc2ccc(Cl)cc2Cl)cc1`, the mutagenic call under setting [2] was “inactive; negative” and the mutagenic call (Test System: AMES SALMONELLA TYPHIMURIUM, Strain/Indicator: TA100, Metabolic Activation: RAT, LIVER, S-9, KANECLOR 500, Method: STANDARD PLATE) was “active; positive”.

For the compound `N[C@@H](CS/C=C/CCl)C(=O)O`, the mutagenic call was “inactive; negative” under setting [4]; “inactive; negative” under setting [3]; “inactive; negative” (Test System: AMES SALMONELLA TYPHIMURIUM, Strain/Indicator: TA2638, Metabolic Activation: NONE, Method: PREINCUBATION).
